According to US5643926A, “Pyrazolidinone CCK and gastrin antagonists and pharmaceutical formulations thereof” (priority 1994, dated 1997):

What was measured:
[1] = molecular target: T1, CCK receptor, mouse brain membranes (Mus musculus, UniProt P56481); assay: Brain CCK receptor binding (displacement of 125I-CCK-8 sulfate, mouse brain membranes)
T1 construct: from tissue; host or cells: forebrain membranes of male CF-1 mice
T1 sequence (P56481 1-453): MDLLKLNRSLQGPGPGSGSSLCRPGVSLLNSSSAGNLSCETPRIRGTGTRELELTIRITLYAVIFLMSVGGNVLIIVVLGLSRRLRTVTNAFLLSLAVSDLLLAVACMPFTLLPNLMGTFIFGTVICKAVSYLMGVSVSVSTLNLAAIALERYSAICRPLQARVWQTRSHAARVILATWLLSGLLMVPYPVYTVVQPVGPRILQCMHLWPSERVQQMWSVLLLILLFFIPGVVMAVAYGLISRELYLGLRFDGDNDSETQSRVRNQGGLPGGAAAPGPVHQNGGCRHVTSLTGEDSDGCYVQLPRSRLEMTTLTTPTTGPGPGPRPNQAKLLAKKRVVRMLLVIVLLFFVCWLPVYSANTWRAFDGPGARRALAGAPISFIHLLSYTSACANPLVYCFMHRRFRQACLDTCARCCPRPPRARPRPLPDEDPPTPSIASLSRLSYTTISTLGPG
Method: (§1) Test Procedures for CCK and Gastrin Receptor Binding (IC50)
Brain CCK receptor binding was performed using mouse brain membranes according to the method of Chang and Lotti (Proc. Natl. Acad. Sci. 83: 4923-4926, 1986). Male CF-1 mice, 23-25 g were sacrificed by cervical dislocation, the forebrain removed and placed in ice cold 50 mM Tris buffer, pH 7.4. The tissue was homogenized in 100 volumes of the Tris buffer with a Brinkman Polytron or Tekmar Tissumizer and then centrifuged at 40,000 g for 10 min. Pellets were resuspended in Tris buffer, centrifuged as above and then resuspended in 100 volumes of assay buffer, pH 6.5 (20 mM N-2-hydroxyethyl-piperazine-N'-2-ethane sulfonic acid (HEPES), 1 mM ethylene glycol bis(2-aminoethyl ether-N,N,N',N'-tetraaceticacid) (EGTA), 5 mM MgCl2, 130 mM NaCl, and 0.25 mg/ml bacitracin). The binding assay consisted of 50 μL of compound (or buffer for total binding), 50 μL of ^125 I-CCK-8 sulfate (20 pM) (Amersham IM-159), 200 μL of assay buffer and 200 μL of homogenate (80-120 μg protein). The samples were incubated at room temperature (25°) for 2 hours, and they were then filtered through GF/B glass fiber filters (soaked in wash buffer for 2 hours before use) using a 48 well Brandel cell harvester designed for receptor binding. The filters were washed twice with 3 ml of 50 mM Tris buffer, pH 7.4, containing 0.01% BSA and then counted for radioactivity in plastic tubes with a Micromedic 10/600 automatic gamma counter.
Compounds were dissolved in dimethyl sulfoxide (DMSO) at a concentration of 10 mM and then further diluted with assay buffer. The concentration of DMSO in the incubation was 0.1% or less and had no effect on the assay at that level. IC-50 values of displacement curves were determined using 7 concentrations of compound and were calculated using the ALLFIT computer program of DeLean, Munson and Rodbard (Am. J. Physiol. 235: E97-E102, 1978). Non-specific binding was determined as the displacement of the radioligand by 100 nM CCK-8 sulfate.
Table III below summarizes representative CCK and gastrin-binding tests results for exemplified compounds in accordance with this invention.

[2] = Titration pKa; type: physicochemical; settings: 2:1 DMF:H2O as solvent
From the text: Tetrahydrofuran (THF) was dried by distillation from sodium/benzophenone.

[3] = molecular target: T2, peripheral type CCK receptors in rat pancreas (Rattus norvegicus, UniProt P30551); assay: Binding to peripheral type CCK receptors in rat pancreas (displacement of 3H-L-364,718); settings: read-out: Pancreas CCK receptor binding, Percent Inhibition at 10 μM
T2 construct: Pancreas was obtained from male Sprague-Dawley rats; from tissue; host or cells: pancreas membranes of male Sprague-Dawley rats
T2 sequence (P30551 1-444): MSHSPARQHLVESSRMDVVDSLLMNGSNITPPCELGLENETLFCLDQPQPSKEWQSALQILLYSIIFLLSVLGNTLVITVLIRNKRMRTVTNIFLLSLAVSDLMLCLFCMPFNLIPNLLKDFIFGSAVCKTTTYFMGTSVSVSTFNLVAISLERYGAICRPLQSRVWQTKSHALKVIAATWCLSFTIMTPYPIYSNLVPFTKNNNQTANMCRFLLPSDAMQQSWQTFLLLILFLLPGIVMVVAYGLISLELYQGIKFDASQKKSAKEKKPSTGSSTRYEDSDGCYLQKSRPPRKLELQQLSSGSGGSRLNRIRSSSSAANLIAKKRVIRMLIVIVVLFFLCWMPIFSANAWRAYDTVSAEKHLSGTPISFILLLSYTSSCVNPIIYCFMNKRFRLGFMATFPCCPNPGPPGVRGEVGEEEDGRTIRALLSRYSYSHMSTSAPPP
Method: as §1
Binding to peripheral type CCK receptors in rat pancreas was done according to the method of Chang et al. (Mol. Pharmacol. 30: 212-217, 1986) using ^3 H-L364, 718. Pancreas was obtained from male Sprague-Dawley rats, 150-200 g, after decapitation, and dissected free from adipose and connective tissue. The tissue was homogenized in 30 volumes of 50 mM Tris buffer, pH 7.4 and centrifuged at 40,000 g for 10 min. The tissue pellet was washed by resuspension and centrifugation as described above. The final pellet was suspended in 500 volumes of assay buffer (50 mM Tris buffer, pH 7.4, 5 mM MgCl2, 0.14 mg/ml bacitracin, and 5 mM dithiothreitol) to give a protein concentration of 30-60 μg/200 μl . Reagent volumes for the assay were the same as those used for CCK binding to brain membranes. Tritium labeled L-364,718 (Dupont NEN, NET-971) was used as the ligand at a concentration of 0.4-0.6 nM. The samples were incubated 1 hour at room temperature and then filtered as described for the CCK-brain receptor. Scintillation cocktail was added to the filters which were counted for radioactivity using a Micromedic Taurus automatic liquid scintillation counter.
Compound samples were prepared and IC-50 values were determined as described for the CCK-brain experiments. […]

[4] = molecular target: T3, gastrin receptor, guinea pig stomach mucosal membranes (Cavia porcellus, UniProt H0VZC5); assay: Gastrin binding to guinea pig stomach mucosal membranes (displacement of 125I-gastrin I); settings: guinea pig gastric mucosa
T3 construct: Guinea pig stomach fundus was obtained from male Hartley guinea pigs; from tissue; host or cells: stomach fundus mucosal membranes of male Hartley guinea pigs
T3 sequence (H0VZC5 1-426): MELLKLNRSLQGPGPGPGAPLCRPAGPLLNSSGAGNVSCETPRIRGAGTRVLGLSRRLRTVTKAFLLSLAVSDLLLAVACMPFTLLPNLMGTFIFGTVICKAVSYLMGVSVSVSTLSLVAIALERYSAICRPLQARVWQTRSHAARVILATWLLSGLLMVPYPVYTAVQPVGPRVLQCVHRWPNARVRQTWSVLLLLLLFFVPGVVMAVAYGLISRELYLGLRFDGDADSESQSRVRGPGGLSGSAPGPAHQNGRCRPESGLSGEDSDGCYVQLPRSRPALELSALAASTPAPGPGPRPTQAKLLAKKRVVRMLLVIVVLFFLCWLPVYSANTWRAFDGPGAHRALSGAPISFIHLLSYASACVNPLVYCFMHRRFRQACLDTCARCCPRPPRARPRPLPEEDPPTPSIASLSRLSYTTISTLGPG
Method: as §1
The method used for gastrin binding to guinea pig stomach mucosal membranes was similar to that described by Takeuchi, Speir and Johnson (Am. J. Physiol. 237(3): E284-E294, 1979). Guinea pig stomach fundus was obtained from male Hartley guinea pigs, 300-350 g, and the mucosa was scraped off with a glass slide. The mucosa was homogenized in 50 mM Tris buffer, pH 7.4, containing 1 mM phenylmethanesulfonyl fluoride using a Dounce glass homogenizer, and the suspension was centrifuged at 40,000 g for 10 min. The resulting pellet was resuspended and centrifuged once more, the final pellet was then suspended in 100 ml assay buffer per 1 guinea pig stomach to give a protein concentration of 200-300 μg/200 μl. The assay buffer consisted of 50 mM Tris buffer, pH 7.4, 5 mM MgCl2, 0.14 mg/ml bacitracin, and 1 μg/ml each of leupeptin, chymostatin, aprotinin and pepstatin. Reagent volumes for the assay were the same as those used for CCK binding to brain membranes. […] The samples were incubated 3 hours at room temperature and filtered and counted as described for CCK binding to brain membranes. Compound samples were prepared and IC-50 values were determined as described for the CCK-brain receptor binding. Non-specific binding was determined using 100 nM gastrin I (human synthetic from Sigma Chemical Co.). […]

Molecule: 1-[(4-Bromophenyl)aminocarbonyl]-2-(O-t-butyl-carboxymethyl)-4,5-diphenyl-3-pyrazolidinone and 1-[(4-bromophenyl)aminocarbonyl]-3-(O-t-butylcarboxymethoxy)-4,5-diphenyl- 2-pyrazoline [Example 11]
- Brain CCK receptor binding, Percent Inhibition at 10 μM ([1]; at 10 μM): 67%

Molecule: 1-[(4-Bromophenyl)aminocarbonyl]-2-carboxymethyl-4,5-diphenyl-3-pyrazolidinone and 1-[(4-bromophenyl)aminocarbonyl]-3-carboxymethoxy-4,5-diphenyl-2-pyrazoline [Example 12]
- titration pKa [2]: 4.8

Molecule: O=C(O)CN1C(=O)[C@H](c2ccccc2)[C@@H](c2ccccc2)N1C(=O)Nc1ccc(Br)cc1 (relative stereo) [Example 12 (N-), 1-[(4-Bromophenyl)aminocarbonyl]-2-carboxymethyl-4,5-diphenyl-3-pyrazolidinone]
- IC50 [1]: 1000 nM

Molecule: O=C1NN(C(=O)Cc2ccc(C(F)(F)F)cc2)[C@@H](c2ccccc2)[C@@H]1c1ccccc1 (relative stereo) [Example 77]
- inhibition at 10 µM [3]: 4%

Molecule: O=C1NN(c2nc3c(Cl)c(Cl)ccc3s2)[C@@H](c2ccccc2)[C@@H]1c1ccccc1 (relative stereo) [Example 86]
- IC50 [1]: 1100 nM

Molecule: O=C1NN(C(=O)Nc2ccc3ccccc3c2)[C@@H](c2ccccc2)[C@@H]1c1ccccc1 (relative stereo) [Example 91]
- IC50 [4]: 62 nM
- IC50 [1]: 10 nM

Molecule: O=C1NN(C(=O)Nc2ccc(C(F)(F)F)cc2)C(c2ccccc2Cl)C1c1ccccc1 (centres unmarked) [Example 110]
- inhibition at 10 µM [3]: 47%
